Experimental data as given in patent US8524765B2, “Compounds that modulate intracellular calcium” (Calcimedica, Inc., priority 2007, dated 2013).
“Also recorded” adds a separate entry of the source.

Assays:
[1] = test system: rat T cells; assay: Cell proliferation of rat T cells; assay type: cell-based; conditions: FIG. 5, read-out: IC50 for inhibition of cell proliferation
[2] = test system: SOCE in rat T cells; assay: SOCE in rat T cells; assay type: cell-based; conditions: T-cell, FIG. 5, read-out: IC50 for inhibition of SOCE
[3] = test system: RBL-2H3 cells; assay: TNF-α release assay (ELISA); assay type: cell-based; conditions: Rattus norvegicus; RBL-2H3 cells induced with TG/TPA; FIG. 3; read-out: IC50 for inhibition of TNF-alpha release
Experimental: To assess degranulation and cytokine release, RBL-2H3 cells were plated and stimulated with 20 nM thapsigargin/20 nM TPA for 20 hr in the presence or absence of compound of Formula (I) or Formula (II). Media was collected and assayed for the release of β-hexosaminidase or for the release of the inflammatory mediator cytokine TNF-α. The β-hexosaminidase enzymatic assay was performed by adding 200 μL 1 mM p-nitrophenyl-acetyl-glucosamide substrate (Sigma #N9376) in 0.05M Na Citrate (pH 4.5) to 50 μL of conditioned medium, incubating for 60 min at 37° C., then adding 500 μL 0.05M Na carbonate, 0.05M Na bicarbonate pH 10.5, mixing thoroughly, and reading the absorbance at 405 nm in a BioRad plate reader. The TNF-α release assay was performed using the Rat Tumor Necrosis Factor-a Ultrasensitive ELISA Kit from BioSource.

[4] = molecular target: T1, hOrail/hSTIM1 (Homo sapiens, UniProt Q96D31); assay: Monster ICRAC in cells stably overexpressing hOrail/hSTIM1; assay type: cell-based; conditions: FIG. 15
T1 construct: expressed in transfected cells
T1 sequence (Q96D31 whole entry): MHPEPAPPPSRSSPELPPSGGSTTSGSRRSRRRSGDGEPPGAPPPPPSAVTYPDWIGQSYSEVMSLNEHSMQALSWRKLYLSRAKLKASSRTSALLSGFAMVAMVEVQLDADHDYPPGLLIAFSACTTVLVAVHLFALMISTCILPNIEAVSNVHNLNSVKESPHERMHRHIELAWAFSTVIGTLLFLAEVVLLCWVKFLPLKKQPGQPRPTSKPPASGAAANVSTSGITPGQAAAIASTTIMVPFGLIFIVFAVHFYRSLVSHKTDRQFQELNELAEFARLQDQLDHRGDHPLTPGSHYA
T1 sequence (Q13586 23-685 partner): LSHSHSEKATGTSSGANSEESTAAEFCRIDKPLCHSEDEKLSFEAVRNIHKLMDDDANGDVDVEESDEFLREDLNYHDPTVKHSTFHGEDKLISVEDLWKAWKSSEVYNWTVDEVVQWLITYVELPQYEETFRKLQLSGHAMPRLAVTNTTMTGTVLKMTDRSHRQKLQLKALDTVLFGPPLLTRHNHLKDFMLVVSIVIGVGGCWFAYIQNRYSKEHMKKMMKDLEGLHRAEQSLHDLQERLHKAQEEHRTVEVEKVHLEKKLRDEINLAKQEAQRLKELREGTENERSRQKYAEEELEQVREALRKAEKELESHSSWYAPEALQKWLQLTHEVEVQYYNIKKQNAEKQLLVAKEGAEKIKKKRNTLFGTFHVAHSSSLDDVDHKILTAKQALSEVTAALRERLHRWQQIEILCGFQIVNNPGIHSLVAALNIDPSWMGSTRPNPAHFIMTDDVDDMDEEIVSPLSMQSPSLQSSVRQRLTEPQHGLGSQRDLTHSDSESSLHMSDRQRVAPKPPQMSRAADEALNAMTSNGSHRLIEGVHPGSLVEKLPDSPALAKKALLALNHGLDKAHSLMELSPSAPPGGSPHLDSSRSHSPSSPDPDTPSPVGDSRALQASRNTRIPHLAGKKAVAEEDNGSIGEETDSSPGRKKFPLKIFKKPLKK

[5] = test system: primary human T cells; assay: Con A-induced cell proliferation of primary human T cells; assay type: cell-based; conditions: FIG. 6, read-out: IC50 for inhibition of Con A-induced cell proliferation
[6] = DNBS-induced colitis in rats (ulcerative colitis model for IBD); assay type: in vivo, rat; conditions: FIG. 20
Experimental: Procedure: Male Wistar rats weighing 200±20 g are fasted for 24 hours prior to use. Distal colitis is induced by intra-colonic instillation of DNBS (2,4-dinotrobenzene sulfonic acid, 20 mg in 0.5 ml ethanol 30%) with a catheter of 12 cm in length, followed by gentle injection of air (2 ml) through the catheter to ensure that the solution remain in the colon. The animals are divided into groups of 5 each. Test substance and vehicle are administered either daily or twice daily by appropriate route of administration 24 hour and 1 hour before DNBS instillation and then for 6 consecutive days thereafter. One normal control group is treated with 0.9% NaCl alone without DNBS challenge. […] During the experiment, body weight, fecal occult blood and stool consistency are monitored daily. Furthermore, when the abdominal cavity is opened before removal of the colon, adhesions between the colon and other organs are noted as is the presence of colonic ulceration after removal and weighing of each colon (a macroscopic damage score is recorded according to established score criteria). The colon-to-body weight ratio is calculated according to the formula: Colon (g)/BW×100. The “Net” increase in ratio of Vehicle-control+DNBS group relative to Vehicle-control group is used as a base for comparison with individual treated groups and expressed as “Dec. […]

[7] = test system: rat T cells; assay: IL-2 secretion in rat T cells; assay type: cell-based; conditions: T-cell, FIG. 5, read-out: IC50 for inhibition of IL-2 secretion
[8] = test system: HEK[STIM1] cells; assay: STIM1-dependent Ca2+ entry in STIM1-overexpressing cells; assay type: cell-based, human; conditions: HEK293 overexpressing STIM1, no Tg store depletion; FIG. 13
Experimental: To test whether the Ca^2+ entry pathway activated by STIM1 overexpression is pharmacologically similar to endogenous SOCE, HEK[STIM1] cells were pre-incubated with increasing doses of 2-APB and STIM1-dependent Ca^2+ entry was measured.

[9] = Skin transplant rejection in Lewis rats; assay type: in vivo, rat; conditions: FIG. 18
[10] = molecular target: T1, hOrail/hSTIM1; assay: Recombinant hOrail/hSTIM1-dependent Ca2+ entry in stable cells; assay type: cell-based; conditions: FIG. 14
[11] = test system: store-operated calcium entry in RBL-2H3 cells; assay: Fluorescence (FLUO-4/FLIPR384) store-operated calcium entry screening assay; assay type: cell-based, rat
Experimental: Fluorescence-based assays were used for screening the compounds described herein, such as compounds of Formula (I) and Formula (II), which modulate intracellular calcium.
RBL-2H3 cells plated in 384-well plates were loaded for 45 min with FLUO-4-AM (2 μM final concentration) in HBSS. Cells were washed and placed in a nominally Ca^2+- and Mg^2+-free Hanks solution. One minute later, a test agent or vehicle was added. After a 15 minute incubation period, 1 μM thapsigargin (Tg) was added to inhibit the ER Ca^2+ pump and discharge intracellular Ca^2+ stores. Fifteen minutes after addition of Tg, store-operated calcium entry was initiated by adding external Ca^2+ to a final concentration of 1.8 mM and the cells monitored for a further 10-15 minutes. Calcium levels were monitored throughout the assay using a FLIPR^384 (Molecular Devices fluorimetric imaging plate reader for high throughput screening).
A similar screening assay procedure was used with HEK293 and RBL-2H3 cells.
The kinetic data from the FLIPR^384 were analyzed and then stored in a relational database (ActivityBase; IDBS). Ten quantitative parameters were calculated that define various aspects of the store-operated calcium entry response. These parameters are as follows:
Up slope: linear regression of the increase in RFU from 2 to 30 sec after addition of Ca^2+.
Combinations of these parameters were used to characterize the compounds of Formula (I). Compounds were retested under identical conditions to confirm their activity. Compounds with confirmed activity were then analyzed for concentration-dependent effects, and subsequently, those compounds displaying concentration-dependent effects were categorized as compounds that modulate intracellular calcium.

[12] = test system: SOCE; assay: Selectivity profile; conditions: FIG. 8

O=C(Nc1scc(-c2ccc(Br)cc2)c1C(=O)O)c1ccc(F)cc1 [Compound 1, 2-(4-fluorobenzamido)-4-(4-bromophenyl)thiophene-3-carboxylic acid]
IC50 [1]: ~4300 nM | IC50 [2]: ~2400 nM | IC50 [3]: 3300 nM | effect on Monster ICRAC [4]: inhibit | IC50 [5]: ~3700 nM | inflammation in the rat ulcerative colitis model for IBD [6]: inhibition of inflammation | IC50 [7]: ~2500 nM | effect on STIM1-dependent Ca2+ entry [8]: concentration dependent inhibition; also recorded: blocked | rejection of skin transplants [9]: delayed rejection | effect on recombinant hOrail/hSTIM1-dependent Ca2+ entry [10]: inhibition | inhibition of the initial kinetics of the CRAC channel response ([11]; RBL-2H3 cells, FIG. 2): concentration-dependent inhibition | inhibition at 10 µM ([11]; Rattus norvegicus, RBL-2H3, 10 μM, cell line not stated): > 70% | IC50 ([11]; Rattus norvegicus, Up slope parameter, RBL-2H3 cells): 2.2 µM | selectivity profile [12]: selective inhibitor of SOCE
